In PubChem BioAssay AID256 (DTP/NCI, 2004) one finds T/C data, which are given here for 20 molecules.

For this test, the system named is CD2F1 mice, L1210 leukemia ip, survival T/C. Put plainly: NCI In Vivo Anticancer Drug Screen. Data for tumor model L1210 Leukemia (intraperitoneal) in CD2F1 (CDF1) mice. The note with it: higher = longer survival. The gist of the method:
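Tumor-bearing mice (transplanted tumor) were split into treated and vehicle control groups, and the measured endpoint of each treated group was divided by that of its vehicle controls.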

Where [1] appears, read: endpoint: mean survival time, dose: 100.0 mg/kg/injection, schedule: Q04DX003 (ip), vehicle: saline with Tween-80.
Where [2] appears, read: endpoint: mean survival time, dose: 200.0 mg/kg/injection, schedule: Q04DX003 (ip), vehicle: saline with Tween-80.
Where [3] appears, read: endpoint: mean survival time, dose: 400.0 mg/kg/injection, schedule: Q04DX003 (ip), vehicle: saline with Tween-80.
Setting [4] is: endpoint: mean survival time, dose: 100.0 mg/kg/injection, schedule: Q04DX002 (ip), vehicle: saline with Tween-80.
Setting [5] is: endpoint: mean survival time, dose: 200.0 mg/kg/injection, schedule: Q04DX002 (ip), vehicle: saline with Tween-80.
The mark [6] stands for this setting: endpoint: mean survival time, dose: 100.0 mg/kg/injection, schedule: Q04DX003 (ip), vehicle: saline.
The mark [7] stands for this setting: endpoint: mean survival time, dose: 100.0 mg/kg/injection, schedule: Q01DX009 (ip), vehicle: saline with Tween-80.
Where [8] appears, read: endpoint: mean survival time, dose: 50.0 mg/kg/injection, schedule: Q01DX009 (ip), vehicle: saline with Tween-80.
Where [9] appears, read: endpoint: mean survival time, dose: 100.0 mg/kg/injection, schedule: Q04DX003 (ip), vehicle: Klucel (hydroxypropylcellulose) (HPC).
Where [10] appears, read: endpoint: mean survival time, dose: 200.0 mg/kg/injection, schedule: Q04DX003 (ip), vehicle: Klucel (hydroxypropylcellulose) (HPC).
Where [11] appears, read: endpoint: mean survival time, dose: 400.0 mg/kg/injection, schedule: Q04DX003 (ip), vehicle: Klucel (hydroxypropylcellulose) (HPC).
The mark [12] stands for this setting: endpoint: mean survival time, dose: 100.0 mg/kg/injection, schedule: Q01DX001 (ip), vehicle: saline with Tween-80.
Setting [13] is: endpoint: mean survival time, dose: 200.0 mg/kg/injection, schedule: Q01DX001 (ip), vehicle: saline with Tween-80.
Setting [14] is: endpoint: mean survival time, dose: 400.0 mg/kg/injection, schedule: Q01DX001 (ip), vehicle: saline with Tween-80.

Structures are written as SMILES. Where “and” joins values, the source holds several entries; their conditions need not be identical. Identical values can stand only once. Toxic doses and inconclusive results are not listed.

Consider `O=C(O)C(O)C(O)C(O)C(O)C(O)CO.[NH-]C1CCCCC1[NH-].[Pt+2]` (stereo not given), for which the T/C was 153 % of control and 178 % of control (endpoint: median survival time, dose: 12.5 mg/kg/injection, schedule: Q04DX003 (ip), vehicle: saline); 266 % of control and 297 % of control (endpoint: median survival time, dose: 25.0 mg/kg/injection, schedule: Q04DX003 (ip), vehicle: saline); 175 % of control and 375 % of control (endpoint: median survival time, dose: 50.0 mg/kg/injection, schedule: Q04DX003 (ip), vehicle: saline); 103 % of control (endpoint: median survival time, dose: 100.0 mg/kg/injection, schedule: Q04DX003 (ip), vehicle: saline).
As for `O=c1[nH]cc(COCc2ccccc2)c(=O)[nH]1`, the T/C runs as follows: under setting [1], 98 % of control; under setting [2], 104 % of control; under setting [3], 96 % of control.
`C[N+](C)(C)C1CCCC1O` (stereo not given): the T/C runs as follows: (endpoint: mean survival time, dose: 25.0 mg/kg/injection, schedule: Q04DX002 (ip), vehicle: saline with Tween-80) 98 % of control; (endpoint: mean survival time, dose: 50.0 mg/kg/injection, schedule: Q04DX002 (ip), vehicle: saline with Tween-80) 98 % of control; under setting [4], 95 % of control; under setting [5], 95 % of control.
On to `N#CC(c1ccc([N+](=O)[O-])cc1)C(CC(=O)c1ccccc1)c1ccccc1` (stereo not given), for which the T/C (endpoint: mean survival time, dose: 50.0 mg/kg/injection, schedule: Q01DX009 (ip), vehicle: Klucel (hydroxypropylcellulose) (HPC)) is 96 % of control; the T/C (endpoint: mean survival time, dose: 100.0 mg/kg/injection, schedule: Q01DX009 (ip), vehicle: Klucel (hydroxypropylcellulose) (HPC)) was 101 % of control; the T/C (endpoint: mean survival time, dose: 200.0 mg/kg/injection, schedule: Q01DX009 (ip), vehicle: Klucel (hydroxypropylcellulose) (HPC)) was 93 % of control.
As for `c1ccc(-c2nn[nH]n2)nc1`, the T/C reads like this: (endpoint: mean survival time, dose: 100.0 mg/kg/injection, schedule: Q01DX001 (ip), vehicle: saline) 101 % of control; under setting [6], 90 % of control and 104 % of control; (endpoint: mean survival time, dose: 200.0 mg/kg/injection, schedule: Q01DX001 (ip), vehicle: saline) 101 % of control; (endpoint: mean survival time, dose: 200.0 mg/kg/injection, schedule: Q04DX003 (ip), vehicle: saline) 102 % of control and 104 % of control; (endpoint: mean survival time, dose: 400.0 mg/kg/injection, schedule: Q04DX003 (ip), vehicle: saline) 94 % of control and 108 % of control.
As for `N/N=C(/C(=O)c1ccccc1)c1ccccc1`, the T/C is 95 % of control under setting [7]; 97 % of control (endpoint: mean survival time, dose: 200.0 mg/kg/injection, schedule: Q01DX009 (ip), vehicle: saline with Tween-80); 95 % of control (endpoint: mean survival time, dose: 400.0 mg/kg/injection, schedule: Q01DX009 (ip), vehicle: saline with Tween-80).
Regarding `COc1ccc(OC)c(C(O)CCc2cccc(N)c2)c1` (stereo not given), the T/C (endpoint: mean survival time, dose: 100.0 mg/kg/injection, schedule: Q04DX002 (ip), vehicle: Klucel (hydroxypropylcellulose) (HPC)) is 93 % of control; the T/C (endpoint: mean survival time, dose: 200.0 mg/kg/injection, schedule: Q04DX002 (ip), vehicle: Klucel (hydroxypropylcellulose) (HPC)) was 93 % of control; the T/C (endpoint: mean survival time, dose: 400.0 mg/kg/injection, schedule: Q04DX002 (ip), vehicle: Klucel (hydroxypropylcellulose) (HPC)) was 97 % of control.
As to `COc1ccc(OC)c2c1CCC(O)(C#N)C2` (stereo not given), the T/C (endpoint: mean survival time, dose: 12.5 mg/kg/injection, schedule: Q01DX009 (ip), vehicle: water) was 98 % of control and the T/C (endpoint: mean survival time, dose: 25.0 mg/kg/injection, schedule: Q01DX009 (ip), vehicle: water) is 89 % of control.
For `CN(C)C(=O)C1C2C=CC(CCC2)C1C(=O)N(C)C` (stereo not given), the T/C is, setting by setting: (endpoint: mean survival time, dose: 100.0 mg/kg/injection, schedule: Q04DX002 (ip), vehicle: saline) 91 % of control; (endpoint: mean survival time, dose: 200.0 mg/kg/injection, schedule: Q04DX002 (ip), vehicle: saline) 88 % of control; (endpoint: mean survival time, dose: 400.0 mg/kg/injection, schedule: Q04DX002 (ip), vehicle: saline) 91 % of control.
`CS(=O)(=O)c1ncc(Br)cn1`: the T/C is 101 % of control (endpoint: mean survival time, dose: 3.12 mg/kg/injection, schedule: Q01DX009 (ip), vehicle: saline with Tween-80); 101 % of control (endpoint: mean survival time, dose: 3.13 mg/kg/injection, schedule: Q01DX009 (ip), vehicle: saline with Tween-80); 101 % of control and 106 % of control (endpoint: mean survival time, dose: 6.25 mg/kg/injection, schedule: Q01DX009 (ip), vehicle: saline with Tween-80); 101 % of control and 102 % of control (endpoint: mean survival time, dose: 12.5 mg/kg/injection, schedule: Q01DX009 (ip), vehicle: saline with Tween-80); 95 % of control and 107 % of control (endpoint: mean survival time, dose: 25.0 mg/kg/injection, schedule: Q01DX009 (ip), vehicle: saline with Tween-80); 103 % of control and 104 % of control under setting [8]. The T/C under setting [7] is 104 % of control and 108 % of control.
For `O=C(O)C1(C(=O)O)CCCCC1.[NH-]CC1(C[NH-])CCCCC1.[Pt+2]`, the T/C is, setting by setting: (endpoint: mean survival time, dose: 30.0 mg/kg/injection, schedule: Q04DX003 (ip), vehicle: suspension in saline) 118 % of control; (endpoint: mean survival time, dose: 60.0 mg/kg/injection, schedule: Q04DX003 (ip), vehicle: suspension in saline) 118 % of control.
Take `ClC1CCC(Cl)C2CCC3C(Cl)CCC1[S+]23` (stereo not given): the T/C reads like this: (endpoint: mean survival time, dose: 3.12 mg/kg/injection, schedule: Q01DX009 (ip), vehicle: Klucel (hydroxypropylcellulose) (HPC)) 104 % of control; (endpoint: mean survival time, dose: 6.25 mg/kg/injection, schedule: Q01DX009 (ip), vehicle: Klucel (hydroxypropylcellulose) (HPC)) 97 % of control; (endpoint: mean survival time, dose: 12.5 mg/kg/injection, schedule: Q01DX009 (ip), vehicle: Klucel (hydroxypropylcellulose) (HPC)) 95 % of control.
Regarding `O=C1c2cccc(Cl)c2C(=O)c2c1cccc2[N+](=O)[O-]`, the T/C runs as follows: under setting [9], 90 % of control; under setting [10], 102 % of control; under setting [11], 98 % of control.
For `CC(=O)CC(=O)OCOC(=O)CC(C)=O` the same measures were 102 % of control, 106 % of control and 106 % of control.
With `CN1CCCN(C(=S)S)CC1`, the T/C runs as follows: (endpoint: mean survival time, dose: 25.0 mg/kg/injection, schedule: Q04DX003 (ip), vehicle: saline) 98 % of control; (endpoint: mean survival time, dose: 50.0 mg/kg/injection, schedule: Q04DX003 (ip), vehicle: saline) 103 % of control; under setting [6], 103 % of control.
Consider `CCCCCCCS(=O)CCCl` (stereo not given), for which the T/C under setting [4] is 96 % of control and the T/C under setting [5] was 108 % of control.
`NC(=O)OCC(O)C(O)C(N)C(=O)NC(C(=O)O)C1OC(n2ccc(=O)[nH]c2=O)C(O)C1O` (stereo not given): the T/C reads like this: (endpoint: mean survival time, dose: 12.5 mg/kg/injection, schedule: Q01DX005 (ip), vehicle: water) 96 % of control; (endpoint: mean survival time, dose: 25.0 mg/kg/injection, schedule: Q01DX005 (ip), vehicle: water) 103 % of control; (endpoint: mean survival time, dose: 50.0 mg/kg/injection, schedule: Q01DX005 (ip), vehicle: water) 98 % of control; (endpoint: mean survival time, dose: 100.0 mg/kg/injection, schedule: Q01DX005 (ip), vehicle: water) 101 % of control; (endpoint: mean survival time, dose: 200.0 mg/kg/injection, schedule: Q01DX005 (ip), vehicle: water) 94 % of control.
As to `CN1C(CC(O)(c2ccccc2)c2ccccc2)CCCC1CC(O)(c1ccccc1)c1ccccc1` (stereo not given), the T/C was 91 % of control under setting [12], 96 % of control under setting [13] and 91 % of control under setting [14].
On to `COc1cccc2c1C(=O)c1c(O)c3c(c(O)c1C2=O)CC(O)(C(=O)CO)CC3OC1CC(N)C(O)C(C)O1.[Cl][Pt+2][Cl].[NH2-].[NH2-]` (stereo not given), for which the T/C by setting is: (endpoint: median survival time, dose: 4.0 mg/kg/injection, schedule: Q04DX003 (ip), vehicle: DMSO) 152 % of control; (endpoint: median survival time, dose: 8.0 mg/kg/injection, schedule: Q04DX003 (ip), vehicle: DMSO) 153 % of control and 154 % of control.
As to `O=C(Nc1ccc([N+](=O)[O-])cc1Cl)OCCc1ccccn1`, the T/C is, setting by setting: under setting [8], 90 % of control; under setting [12], 98 % of control; under setting [1], 93 % of control; under setting [13], 95 % of control; under setting [2], 95 % of control; under setting [14], 93 % of control. Besides, the T/C under setting [3] is 90 % of control.
